Measurements from patent US8039668B2, “Naphthalene-based inhibitors of anti-apoptotic proteins” (Burnham Institute for Medical Research, priority 2008, dated 2011).
Like-named read-outs stand apart in the source and are kept apart here.

What was measured:
[1] = target: T1, BCL-XL (Homo sapiens, UniProt Q07817); assay: 1D 1H-NMR binding assay; design: key to 1D-^1H NMR: +++, Very Active; ++, Active; +, Mild; −, Weak; conditions: for 1D-^1H NMR: Table 3, BCL-XL 25 μM, compound 200 μM
Experimental: By observing the aliphatic region of the spectra, binding could be readily detected due to chemical shift changes in active site methyl groups of Ile, Leu, Thr, Val or Ala (region between −0.8 and 0.3 ppm). All experiments were performed with a 600 MHz spectrometer Bruker Avance 600 equipped with four rf channels and z-axis pulse-field gradients.
Target sequence in this assay (Q07817 whole entry): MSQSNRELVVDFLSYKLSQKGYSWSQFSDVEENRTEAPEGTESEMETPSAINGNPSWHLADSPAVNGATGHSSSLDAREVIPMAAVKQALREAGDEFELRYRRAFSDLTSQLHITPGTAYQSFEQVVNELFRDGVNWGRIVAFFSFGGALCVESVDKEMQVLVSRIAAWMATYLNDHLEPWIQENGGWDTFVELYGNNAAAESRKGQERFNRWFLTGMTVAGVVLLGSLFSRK

[2] = target: Bcl-2 (Homo sapiens, UniProt P10415); assay: Competitive fluorescence polarization assay (FPA), Bim BH3 peptide; format: binding
[3] = target: Mcl-1 (Homo sapiens, UniProt Q07820); assay: as above; format: binding
[4] = target: T2, Bfl-1 (Homo sapiens, UniProt Q16548); assay: Competitive fluorescence polarization assay (FPA); format: binding
T2 sequence (Q16548 1-175): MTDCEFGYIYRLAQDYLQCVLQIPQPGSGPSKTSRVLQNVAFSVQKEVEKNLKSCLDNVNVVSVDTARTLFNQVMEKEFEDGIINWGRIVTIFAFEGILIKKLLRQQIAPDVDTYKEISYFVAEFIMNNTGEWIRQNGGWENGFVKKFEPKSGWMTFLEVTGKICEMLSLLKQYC

[5] = target: T1, BCL-XL; assay: Isothermal titration calorimetry (ITC); format: binding
Experimental: Titrations were performed using a VP-ITC or ITC200 calorimeter from Microcal (Northampton, Mass.). BCL-XL was used at concentrations between 25 and 100 μM in 20 mM sodium phosphate buffer (pH 7.4) and 5-10% DMSO. Titrants were used at concentrations 10-15 fold of that of the protein in the same buffer. Titrations were carried out at 25° C. Data were analyzed using Microcal Origin software provided by the ITC manufacturer (Microcal, Northampton, Mass.).
Target sequence in this assay (Q07817 whole entry): as the sequence (Q07817 whole entry) above

[6] = tested on: H1299 cell line; assay: Cell viability, ATP-LITE assay; format: cell-based, human; conditions: for EC50: Table 3, ATP-LITE assay, read-out: EC50 H1299
Method in brief: (§1)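 Human cancer lines were seeded at 2000 (H460, H1299), 3000 (PC3) or 10,000 (RS11846) cells/well in F12 or RPMI1640 with 5% FBS. Compounds were added in 0.1% DMSO 24 h after seeding. Viability was read by ATP-LITE luminescence after 72 h and normalized to DMSO controls.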

[7] = tested on: PC3ML cells; assay: Cell viability, ATP-LITE assay; format: cell-based, human; conditions: Table 3, ATP-LITE assay, heading: EC50 PC3ML, read-out: EC50 PC3ML
Method in brief: as §1

[8] = tested on: H460 human lung cell line; assay: Cell viability, ATP-LITE assay; format: cell-based; conditions: for EC50: ATP-LITE assay, read-out: EC50 H460; for IC50: read-out: IC50 inhibiting cell growth, H460
Method in brief: as §1

[9] = tested on: human lymphoma RS11846 cell line; assay: Apoptosis, Annexin V-FITC and propidium iodide assay; format: cell-based; conditions: Annexin V-FITC and propidium iodide assay, read-out: EC50 RS11846
Experimental: The apoptotic activity of the compounds against RS11846 cells was assessed by staining with Annexin V- and propidium iodide (PI). Lymphoma cell line, RS11846, was cultured in RPMI 1640 medium (Mediatech Inc., Herndon, Va. 20171) containing 10% fetal bovine serum (Mediatech Inc., Herndon, Va. 20171) and Penicillin/Streptomycin (Mediatech Inc., Herndon, Va. 20171). […] The percentage of viable cells was determined by FITC-Annexin V- and propidium iodide (PI)-labeling, using an Apoptosis Detection kit (BioVision Inc.), and analyzing stained cells by flow cytometry (FACSort; Bectin-Dickinson, Inc.; Mountain View, Calif.). Cells that were annexin-V-negative and PI-negative were considered viable.

[10] = tested on: BP3 human B-cell lymphoma cell line; assay: Annexin V-FITC and propidium iodide assay; format: cell-based; conditions: for EC50: Annexin V-FITC and propidium iodide assay, read-out: EC50 BP3
[11] = tested on: Bax/Bak double knockout mouse embryonic fibroblast cells (MEF/DKO); assay: FITC-Annexin V/PI cytotoxicity in Bax/Bak double knockout cells; format: cell-based; conditions: 10 μM
Experimental: MEF/WT and MEF/DKO cells were seeded in 24-well plate at a seeding density of half a million per well (in 1 ml of DMEM medium supplemented by 10% FCS). […] On the following day, floating cells were pooled with adherent cells harvested after brief incubation with 0.25% Trypsin/EDTA solution (Gibco/In-Vitrogen Inc.). Cells were centrifuged and supernatant was discarded, and cell pellet was re-suspended with 0.2 ml of Annexin-V binding buffer, followed by addition of 1 μl Annexin-FITC and 1 μl PI (propidium iodide). The percentage of viable cells was determined by a 3-color FACSort instrument and data analyzed by Flow-Jo program, scoring Annexin V-negative, PI-negative as viable cells.

[12] = Chemical stability of solid compounds at room temperature (HPLC, LCMS); conditions: in air, Apogossypol in the absence of ascorbic acid
Source text: The stability of compound was monitored using a combination of HPLC and LCMS.

[13] = Plasma stability; format: in vitro ADME, rat; conditions: for Plasma stability (T = 1 h): Table 6, rat plasma
Experimental: Plasma Stability. A 20 μL aliquot of a 10 mM solution in DMSO of the test compound was added to 2.0 mL of heparinized rat plasma (Lampire, P1-150N) to obtain a 100 μM final solution. The mixture was incubated for 1 h at 37.5° C. Aliquots of 100 μL were taken (0, 30 min, 1 h) and diluted with 200 μL of MeOH containing internal standard.

[14] = Liver microsomal stability; format: in vitro ADME, rat; conditions: Table 6; rat liver microsomes, 1 h
Source text: Liver Microsomal Stability.

[15] = tested on: B6Bcl-2 transgenic mice; conditions: for Tox: Bcl-2 transgenic mouse, single ip injection 72 μmol/kg; for percentage of maximum reduction in spleen weight (maximal biological activity): maximum shrinkage no more than 50%
Method in brief: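 B6 line BCL-2 transgenic mice (human BCL-2 fused to IgH locus/enhancer, Balb/c background) sacrificed 24 h post-treatment by lethal i.p. Avertin. Spleen removed and weighed, fixed 3 days in z-FIX for H&E and TUNEL histology.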

[16] = target: T1, BCL-XL; assay: Competitive fluorescence polarization assay (FPA), Bak BH3 peptide; format: binding; design: 100 nM GST-BCL-XL ΔTM protein
Method in brief: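 100 nM GST-BCL-XL ΔTM preincubated with compound in PBS pH 7.4 for 10 min at room temperature, then FITC-Bak BH3 peptide added. Polarization read after 10 min. IC50 from sigmoidal dose-response fit; mean ± SE of three independent experiments.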
Target sequence in this assay (Q07817 1-209 limits assumed): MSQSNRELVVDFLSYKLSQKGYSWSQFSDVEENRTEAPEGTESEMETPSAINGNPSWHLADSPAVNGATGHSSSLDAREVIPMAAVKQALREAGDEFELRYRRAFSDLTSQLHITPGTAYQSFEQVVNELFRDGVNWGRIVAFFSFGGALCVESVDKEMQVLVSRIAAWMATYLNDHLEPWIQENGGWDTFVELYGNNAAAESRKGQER

[17] = tested on: Balb/c mice
Source text: Upon conclusion of the study, mice were euthanized by CO2, and vital organs were harvested and fixed with z-FIX solution for 3 days at room temperature, rinsed in PBS three times, for further histological evaluation.

[18] = PAMPA cell membrane permeability; format: in vitro ADME; conditions: Table 11; Low/Medium, not defined
Source text: PAMPA is parallel artificial membrane permeation assay.

[19] = tested on: Balb/c mice; assay: Oral toxicity of gossypol vs apogossypol in normal mice; format: in vivo, mouse; conditions: daily dosing studies in mice
Experimental: Compounds or vehicle control were dosed 15 times over 3 weeks, giving compounds daily for 5 consecutive days (Monday-Friday), resting on weekends.
Spleens were removed and weighed.
Whole blood (250 μl) was collected in EDTA-coated glass tubes (purple top; MICROTAINER Brand Tube with EDTA, Catalogue #365973, Becton, Dickinson and Company, New Jersey 07417-1885) via either cardiac puncture or severing the brachial artery of anesthetized mice. After thorough mixing, specimens were analyzed using a VetScan HM2 (Abaxis Inc., Union City, Calif. 94587) hematology analyzer, measuring white blood cell count (WBC), red blood cell count (RBC), platelet (PLT) count, leukocyte differential (including % lymphocyte, % monocyte and % granulocyte), hematocrit (Ht), and hemoglobin (Hb).
(Eppendorf Centrifuge 5415C) for 2 minutes to separate serum from cells and fibrin clot. The resulting serum specimens were analyzed using an automated blood chemistry analyzer (“COBAS MIRA Classic”; Roche, Indianapolis, Ind. 46250-0414) to measure alanine aminotransferase (ALT) and aspartate aminotransferase AST), blood urea nitrogen (BUN), and […].

[20] = tested on: BCL-2 transgenic mice; assay: Oral efficacy study in BCL-2 transgenic mice, QDx5 for 3 weeks; conditions: low dose 0.06 mmol/kg oral
Experimental: The volume of administration was 10 ml/kg, i.e., typically 0.2 mL per 20 gm mouse. […] Age-matched, sex-matched mice were typically dosed 5 times weekly, using a regiment of daily dosing 5 consecutive days (Monday through Friday), followed by resting for 2 days, before resuming dosing. […] At conclusion of treatments, mice were sacrificed via intra-peritoneal (i.p.) injection of 0.7 ml of Avertin and whole blood was collected into Yellow-Top Serum Separator tubes (Becton Dickinson Vacutainer Systems Becton Dickinson and Company, Franklin Lakes, N.J. 07417-1885). Spleens were removed and weighed.
Age-matched and sex-matched BCL-2 transgenic mice were used for efficacy studies. BCL-2 transgenic mice spontaneously developed low grade B-cell lymphoma as characterized by splenomegaly, as a function of time. In BCL-2 transgenic mice, the disease progression can be divided into two stages; at the first stage, the disease is characterized by splenomegaly as a result of expansion of B-cells in spleen due to over-expressed BCL-2 in B6 mice, and at the second stage, another genetic hit(s) may strike, resulting in disseminated lymphoma as characterized by bulky lymphadenopathy as well as splenomegaly.
In this study, BCL-2 transgenic mice at the first stage were used for this efficacy study. […] At conclusion of treatment, BCL-2 transgenic mice were sacrificed via intraperitoneal injection of 0.7 ml of avertin (anesthetic solution) and spleen was removed and weighed. Splenocytes were isolated by the use of mouse erythrocyte lysing kit (RD Systems). Total splenocyte count was determined by trypane blue exclusion assays. % B-cell count was determined by FACS analysis after staining cells with CD-5, a B-cell marker.

Chain of Bcl-2 (P10415 whole entry): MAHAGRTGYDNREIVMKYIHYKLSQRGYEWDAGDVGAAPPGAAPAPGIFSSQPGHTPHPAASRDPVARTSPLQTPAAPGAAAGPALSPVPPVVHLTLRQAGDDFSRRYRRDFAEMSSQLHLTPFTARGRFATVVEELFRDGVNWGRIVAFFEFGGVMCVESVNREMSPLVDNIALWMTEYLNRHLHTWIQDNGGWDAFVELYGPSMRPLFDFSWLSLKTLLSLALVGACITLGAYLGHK
Chain of Mcl-1 (Q07820 whole entry): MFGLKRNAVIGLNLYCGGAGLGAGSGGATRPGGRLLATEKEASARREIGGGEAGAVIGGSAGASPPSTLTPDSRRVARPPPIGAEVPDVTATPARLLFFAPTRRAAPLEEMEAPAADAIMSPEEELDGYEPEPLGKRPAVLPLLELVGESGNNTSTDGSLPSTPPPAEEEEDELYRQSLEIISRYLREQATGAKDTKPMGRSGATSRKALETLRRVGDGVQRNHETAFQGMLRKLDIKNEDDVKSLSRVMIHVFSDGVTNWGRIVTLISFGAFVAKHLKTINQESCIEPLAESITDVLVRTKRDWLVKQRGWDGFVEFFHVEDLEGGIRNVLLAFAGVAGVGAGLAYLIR

Compound | 1D-^1H NMR [1] | IC50 [2] [nM] | IC50 [4] [nM] | IC50 ([8]; Homo sapiens, NCI-H460) [nM] | MEF/DKO cells killed [11] | degraded after 60 days at room temperature [12] [%] | Plasma stability (T = 1 h) [13] [%] | Microsomal Stability (T = 1 h) [14] [%] | Tox [15] | degraded after 1 hour incubation in rat plasma [13] [%] | percentage of maximum reduction in spleen weight (maximal biological activity) ([15]; single ip 72 μmol/kg) | EC50 [7] [nM] | EC50 ([8]; Table 3, heading: EC50 H460) [nM] | EC50 ([9]; Table 3, heading: EC50 RS11846) [nM] | EC50 ([10]; Table 3, heading: EC50 BP3) [nM] | shrinkage of spleen [20] | tolerability [20] | further results
CCc1ccc(CCNC(=O)c2c(O)c(O)cc3c(O)c(-c4c(C)cc5c(C(=O)NCCc6ccc(CC)cc6)c(O)c(O)cc5c4O)c(C)cc23)cc1 [Compound 8q, N^5,N^5′-bis(4-ethylphenethyl)-1,1′,6,6′,7,7′-hexahydroxy-3,3′-dimethyl-2,2′-binaphthyl-5,5′-dicarboxamide] | +++ | 670 | 1300 | 400 | 20-35% | 10 | 94 | 87 | 4+ |  |  |  |  |  |  |  |  | IC50 [3]: 590 nM; Kd [5]: 120 nM; EC50 ([6]; Homo sapiens, NCI-H1299): 360 nM; IC50 ([6]; Homo sapiens, NCI-H1299, read-out: IC50 cell inhibition, H1299): 360 nM; EC50 ([7]; Homo sapiens, PC3-ML): 1700 nM; EC50 ([8]; Homo sapiens, NCI-H460, Table 3): 400 nM; EC50 ([9]; Homo sapiens): 3000 to 5800 nM; EC50 ([9]; Homo sapiens, Table 3, heading: EC50 RS11846): 3000 nM; EC50 ([10]; Homo sapiens, B-cell, Table 3): 200 nM; IC50 ([10]; Homo sapiens, B-cell, read-out: IC50 inhibiting cell growth, BP3): 200 nM; IC50 ([16]; read-out: IC50 FPA Bcl-XL): 930 nM
Cc1cc2c(C(=O)NCC(C)c3ccccc3)c(O)c(O)cc2c(O)c1-c1c(C)cc2c(C(=O)NCC(C)c3ccccc3)c(O)c(O)cc2c1O (centres unmarked) [Compound 8r, 1,1′,6,6′,7,7′-hexahydroxy-3,3′-dimethyl-N^5,N^5′-bis(2-phenylpropyl)-2,2′-binaphthyl-5,5′-dicarboxamide] | ++ |  |  | 330 | 20-35% | 10 | 96 | 76 |  | 4 | 85-95% |  |  |  |  |  |  | times more potent than Apogossypol, FP Bfl-1 ([4]; vs Apogossypol): approximately 10; times more potent than Apogossypol, ITC Bcl-XL ([5]; vs Apogossypol): 15; times more potent than Apogossypol, H460 ([8]; vs Apogossypol): 7-10; EC50 ([10]; Homo sapiens, B-cell): 660 nM; times more potent than Apogossypol, BP3 ([10]; vs Apogossypol): 7-10; GI toxicity ([15]; B6Bcl-2 transgenic (Balb/c background), mouse, in vivo, 42 mg/kg, 24 h): mild signs of GI toxicity; average weight loss of mice ([15]; mouse, in vivo, 42 mg/kg): 7.8%; spleen weight reduction ([15]; single mouse, single ip 72 μmol/kg): more than 40%; weight loss ([17]; mouse, in vivo, ip, 50 mg/kg): around 13%; mortality ([17]; single ip 100, 75, 50, 25 and 12.5 mg/kg, 14 days): All mice were alive after 14 days; times more effective than Apogossypol, FP Bcl-XL ([16]; vs Apogossypol): 5
Cc1cc2c(C(C)C)c(O)c(O)cc2c(O)c1-c1c(C)cc2c(C(C)C)c(O)c(O)cc2c1O [Apogossypol, 5,5′-diisopropyl-3,3′-dimethyl-2,2′-binaphthyl-1,1′,6,6′,7,7′-hexanol, reference compound] |  | 4300 | > 10000 |  |  | ~80 | 53 | 64 | 0 | 47 | 40% | 10400 | 3500 | 5000 | 4700 | induced shrinkage of spleen to a significant extent | well tolerated | EC50 [8]: 3500 nM; EC50 [10]: 4700 nM; Cell Permeability [18]: Low; tolerated doses, times higher than gossypol [19]: 2-4
CC(=O)O.Cc1cc2c(C(C)C)c(O)c(O)c(C=O)c2c(O)c1-c1c(C)cc2c(C(C)C)c(O)c(O)c(C=O)c2c1O [Gossypol, reference compound] | +++ |  |  |  |  |  |  |  | 2+ |  | 40% | 3100 | 3000 | 4200 | 1420 | induced shrinkage of spleen to a considerable extent but not significantly | well tolerated | 1D ^1H-NMR Binding Assay (BCL-XL) ([1]; Table 9): ++; EC50 ([6]; heading: EC50 H1299): 6000 nM
